Test results reported in PubChem BioAssay AID270 (DTP/NCI, 2004).
“And” between values parts separate entries of the source, which are not always exact repeats. Equal values may be shown once. Inconclusive results are not listed.

System: BDF1 mice, s.c. Lewis lung carcinoma, T/C %
Assay: NCI In Vivo Anticancer Drug Screen. Data for tumor model Lewis Lung Carcinoma (subcutaneous) in B6D2F1 (BDF1) mice
Procedure, shortened: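 Antitumor effect in vivo is scored from survival or tumor burden, reported as treated relative to vehicle controls.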

[1] = endpoint: median survival time, dose: 12.5 mg/kg/injection, schedule: Q01DX009 (ip), vehicle: saline, higher = longer survival
[2] = endpoint: median survival time, dose: 25.0 mg/kg/injection, schedule: Q01DX009 (ip), vehicle: saline, higher = longer survival

COC(=O)C1=C(C(=O)OC)C2CC3C4CC=C5CC(OC(C)=O)CCC5(C)C4CCC3(C)C2=C(OC(C)=O)C1 (stereo not drawn)
T/C (endpoint: mean tumor weight, dose: 62.5 mg/kg/injection, schedule: Q01DX011 (sc), vehicle: saline, higher = larger tumour): 105 % of control
T/C (endpoint: mean tumor weight, dose: 125.0 mg/kg/injection, schedule: Q01DX011 (sc), vehicle: saline, higher = larger tumour): 99 % of control
T/C (endpoint: mean tumor weight, dose: 250.0 mg/kg/injection, schedule: Q01DX011 (sc), vehicle: saline, higher = larger tumour): 97 % of control

CC1(C)N=C(N)N=C(N)N1c1cccc(CC(=O)Nc2ccc(S(=O)(=O)F)cc2)c1
T/C (endpoint: median survival time, dose: 25.0 mg/kg/injection, schedule: Q01DX009 (ip), vehicle: Klucel (hydroxypropylcellulose) (HPC), higher = longer survival): 100 % of control
T/C (endpoint: median survival time, dose: 50.0 mg/kg/injection, schedule: Q01DX009 (ip), vehicle: Klucel (hydroxypropylcellulose) (HPC), higher = longer survival): 95 % of control
T/C (endpoint: median survival time, dose: 100.0 mg/kg/injection, schedule: Q01DX009 (ip), vehicle: Klucel (hydroxypropylcellulose) (HPC), higher = longer survival): 98 % of control
T/C (endpoint: median survival time, dose: 150.0 mg/kg/injection, schedule: Q01DX009 (ip), vehicle: Klucel (hydroxypropylcellulose) (HPC), higher = longer survival): 94 % of control

CC1=CC(=O)N(NC(N)=O)C1=O
T/C [1]: 107 % of control
T/C [2]: 104 % of control
T/C (endpoint: median survival time, dose: 50.0 mg/kg/injection, schedule: Q01DX009 (ip), vehicle: saline, higher = longer survival): 90 % of control

O=c1[nH]c2cc(Cl)c(Cl)cc2o1
T/C (endpoint: mean tumor weight, dose: 22.0 mg/kg/injection, schedule: Q01DX011 (ip), vehicle: carboxymethylcellulose (CMC), higher = larger tumour): 79 % of control
T/C (endpoint: mean tumor weight, dose: 35.0 mg/kg/injection, schedule: Q01DX011 (ip), vehicle: carboxymethylcellulose (CMC), higher = larger tumour): 93 % of control
T/C (endpoint: mean tumor weight, dose: 50.0 mg/kg/injection, schedule: Q01DX011 (ip), vehicle: carboxymethylcellulose (CMC), higher = larger tumour): 95 % of control
T/C (endpoint: mean tumor weight, dose: 75.0 mg/kg/injection, schedule: Q01DX011 (ip), vehicle: carboxymethylcellulose (CMC), higher = larger tumour): 77 % of control and 84 % of control
T/C (endpoint: mean tumor weight, dose: 115.0 mg/kg/injection, schedule: Q01DX011 (ip), vehicle: carboxymethylcellulose (CMC), higher = larger tumour): 114 % of control

C=C1C(=O)O[C@H]2[C@H]1[C@H](OC(=O)/C(C)=C\C)CC(=C)[C@@H]1[C@H](O)[C@H]3O[C@@]3(C)[C@@]12O
T/C (endpoint: mean tumor weight, dose: 7.5 mg/kg/injection, schedule: Q01DX011 (ip), vehicle: saline, higher = larger tumour): 63 % of control
T/C (endpoint: mean tumor weight, dose: 15.0 mg/kg/injection, schedule: Q01DX011 (ip), vehicle: saline, higher = larger tumour): 70 % of control
T/C (endpoint: mean tumor weight, dose: 30.0 mg/kg/injection, schedule: Q01DX011 (ip), vehicle: saline, higher = larger tumour): 63 % of control

CC[C@@]1(O)C(=O)OCc2c1cc1n(c2=O)Cc2cc3c(OC)cccc3nc2-1
T/C (endpoint: median survival time, dose: 0.12 mg/kg/injection, schedule: Q01DX009 (ip), vehicle: Klucel (hydroxypropylcellulose) (HPC), higher = longer survival): 119 % of control
T/C (endpoint: median survival time, dose: 0.25 mg/kg/injection, schedule: Q01DX009 (ip), vehicle: Klucel (hydroxypropylcellulose) (HPC), higher = longer survival): 197 % of control
T/C (endpoint: median survival time, dose: 0.51 mg/kg/injection, schedule: Q01DX009 (ip), vehicle: Klucel (hydroxypropylcellulose) (HPC), higher = longer survival): 198 % of control
T/C (endpoint: median survival time, dose: 1.0 mg/kg/injection, schedule: Q01DX009 (ip), vehicle: Klucel (hydroxypropylcellulose) (HPC), higher = longer survival): 198 % of control

CCCC1CCC(=C2C(=O)CCC2=O)O1 (stereo not drawn)
T/C (endpoint: median survival time, dose: 3.13 mg/kg/injection, schedule: Q01DX009 (ip), vehicle: saline, higher = longer survival): 102 % of control
T/C (endpoint: median survival time, dose: 6.25 mg/kg/injection, schedule: Q01DX009 (ip), vehicle: saline, higher = longer survival): 111 % of control
T/C [1]: 105 % of control
T/C [2]: 101 % of control

CC(=O)Nc1cc2c(cc1Br)-c1ccccc1C2O (stereo not drawn)
T/C (endpoint: mean tumor weight, dose: 24.0 mg/kg/injection, schedule: Q01DX011 (ip), vehicle: saline, higher = larger tumour): 47 % of control and 62 % of control and 69 % of control
T/C (endpoint: mean tumor weight, dose: 55.0 mg/kg/injection, schedule: Q01DX011 (ip), vehicle: saline, higher = larger tumour): 31 % of control and 52 % of control and 53 % of control
T/C (endpoint: mean tumor weight, dose: 444.0 mg/kg/injection, schedule: Q01DX011 (ip), vehicle: saline, higher = larger tumour): 26 % of control
T/C (endpoint: mean tumor weight, dose: 666.0 mg/kg/injection, schedule: Q01DX011 (ip), vehicle: saline, higher = larger tumour): 19 % of control

C/C=C(\C)c1cc(=O)c2c(C)cc3c(c2o1)C(=O)c1c(O)c(C2CC(C)(N(C)C)C(O)C(C)O2)cc(C2CC(N(C)C)C(O)C(C)O2)c1C3=O (stereo not drawn)
T/C (endpoint: median survival time, dose: 0.5 mg/kg/injection, schedule: Q01DX009 (ip), vehicle: Klucel (hydroxypropylcellulose) (HPC), higher = longer survival): 100 % of control
T/C (endpoint: median survival time, dose: 2.0 mg/kg/injection, schedule: Q01DX009 (ip), vehicle: Klucel (hydroxypropylcellulose) (HPC), higher = longer survival): 96 % of control

CCCCCCC(=O)O[C@H]1CC[C@H]2[C@@H]3CCC4=CC(=O)CC[C@]4(C)[C@H]3CC[C@]12C
T/C (endpoint: mean tumor weight (est.), dose: 10.0 mg/kg/injection, schedule: Q01DX009 (ip), vehicle: water, higher = larger tumour): 73 % of control
T/C (endpoint: mean tumor weight (est.), dose: 20.0 mg/kg/injection, schedule: Q01DX009 (ip), vehicle: water, higher = larger tumour): 111 % of control
T/C (endpoint: mean tumor weight (est.), dose: 40.0 mg/kg/injection, schedule: Q01DX009 (ip), vehicle: water, higher = larger tumour): 52 % of control
T/C (endpoint: mean tumor weight (est.), dose: 80.0 mg/kg/injection, schedule: Q01DX009 (ip), vehicle: water, higher = larger tumour): 93 % of control
T/C (endpoint: median survival time, dose: 10.0 mg/kg/injection, schedule: Q01DX009 (ip), vehicle: water, higher = longer survival): 115 % of control
T/C (endpoint: median survival time, dose: 80.0 mg/kg/injection, schedule: Q01DX009 (ip), vehicle: water, higher = longer survival): 101 % of control
